Assay results published in patent US20040063790A1, “Methods for inhibition of angiogenesis” (The Scripps Research Institute, priority 1996, published 2004).
Each block holds one molecule with its values, some of them ahead of it. Where a SMILES comes first, the peptide text is derived from it. [ ]: non-standard residue; d: D form.

Assays:
[1] = system: tumor-induced angiogenesis; assay: CAM assay, tumor-induced angiogenesis, intravenous application; assay type: in vivo, chick; settings: intravenous injection
Protocol: Angiogenesis was induced in the CAM assay system by direct apposition of a tumor fragment on the CAM. Preparation of the chick embryo CAM was identical to the procedure described above. Instead of a filter paper disk, a 50 milligram (mg) to 55 mg in weight fragment of one of human melanoma tumor M21-L, human lung carcinoma tumor UCLAP-3, human pancreatic carcinoma cell line FG (Cheresh et al., Cell 58:945-953, 1989), or human laryngeal carcinoma cell line HEp3, all of which are αvβ3 negative tumors, was placed on the CAM in an area originally devoid of blood vessels.
The M21-L human melanoma cell line, UCLAP-3 human lung carcinoma cell line, FG pancreatic carcinoma cell line, or HEp3 human laryngeal carcinoma cell line, all αvβ3 negative, were used to grow the solid human tumors on the CAMs of chick embryos. A single cell suspension of 8×10^6 M21-L, UCLAP-3, and FB or 5×10^5 HEp3 cells was first applied to the CAMs in a total volume of 30 μl of sterile HBSS. The windows were sealed with tape and the embryos were incubated for 7 days to allow growth of human tumor lesions. At the end of 7 days, now a 17-day embryo, the tumors were resected from the CAMs and trimmed free of surrounding CAM tissue. […]
The effects of peptide exposure to tumor-induced vasculature in the CAM assay system was also assessed. […]

[2] = system: bFGF-induced angiogenesis; assay: CAM assay, growth factor-induced angiogenesis, topical application; assay type: in vivo, chick; settings: 80 μg peptide topically at 0, 24 and 48 hrs; viewed at 72 hours
Protocol: J. Pathol., 79:597 (1975). CAMs were prepared from chick embryos for subsequent induction of angiogenesis and inhibition thereof as described in Examples 4 and 5, respectively. Ten day old chick embryos were obtained from McIntyre Poultry (Lakeside, Calif.) and incubated at 37° C. with 60% humidity. A small hole was made through the shell at the end of the egg directly over the air sac with the use of a small crafts drill (Dremel, Division of Emerson Electric Co. Racine Wis.). A second hole was drilled on the broad side of the egg in a region devoid of embryonic blood vessels determined previously by candling the egg. […]
Angiogenesis was induced by placing a 5 millimeter (mm)×5 mm Whatman filter disk (Whatman Filter paper No.1) saturated with Hanks Balanced Salt Solution (HBSS, GIBCO, Grand Island, N.Y.) or HBSS containing 150 nanograms/milliliter (ng/ml) recombinant basic fibroblast growth factor (bFGF) (Genzyme, Cambridge, Mass.) on the CAM of a 10-day chick embryo in a region devoid of blood vessels and the windows were latter sealed with tape. […] For assays where inhibition of angiogenesis ws evaluated with intravenous injections of antagonists, angiogenesis was first induced with 1-2 μg/ml bFGF in fibroblast growth medium. Angiogenesis was monitored by photomicroscopy after 72 hours. […]
Quantification was performed in a double blind manner by at least two independent observers. […]

αIIbβ3 = biological target: T1, αIIbβ3 (Homo sapiens, UniProt P05106+P08514); assay: Ligand-receptor binding assay, immobilized αIIbβ3; settings: radiolabeled fibrinogen; average of duplicate data points ± standard deviation; read-out: αIIbβ3 (IC50 μM)
T1 construct: selected purified integrins were separately immobilized in Titertek microtiter wells
Source text: (§1) Herein described is a method of identifying antagonists in a ligand-receptor binding assay in which the receptor is immobilized to a solid support and the ligand and antagonist are soluble. Also described is a ligand-receptor binding assay in which the ligand is immobilized to a solid support and the receptor and antagonists are soluble.
(§2) Briefly, selected purified integrins were separately immobilized in Titertek microtiter wells at a coating concentration of 50 nanograms (ng) per well. The purification of the receptors used in the ligand-receptor binding assays are well known in the art and are readily obtainable with methods familiar to one of ordinary skill in the art. After incubation for 18 hours at 4° C., nonspecific binding sites on the plate were blocked with 10 milligrams/milliliter (mg/ml) of bovine serum albumin (BSA) in Tris-buffered saline. […] Radiolabeled ligands were used at concentrations of 1 nM and binding was challenged separately with unlabeled synthetic peptides.
(§3) Following a three hour incubation, free ligand was removed by washing and bound ligand was detected by gamma counting. […] The IC50 data in micromoles (IC50 μM) are expressed as the average of duplicate data points±the standard deviation as shown in Table 2.

αvβ3 = biological target: T2, αvβ3 (Homo sapiens, UniProt P05106+P06756); assay: Ligand-receptor binding assay, immobilized αvβ3
T2 construct: selected purified integrins were separately immobilized in Titertek microtiter wells
Source text: as §1, §2, §3

αvβ3 integrin = αvβ3 integrin (Homo sapiens, UniProt P05106+P06756); settings: Pfaff et al. 1994; not to the αIIbβ3 or α5β1 integrins; cited from earlier work
[3] = system: retinal neovascularization; settings: Hammes et al., Nature Med. 1996; cited from earlier work
M21-L melanoma tumor = assay: In vivo chimeric mouse:human assay; parameters: species or system SCID mouse; settings: intravenous, FIG. 18
Protocol: An in vivo chimeric mouse:human model was generated by replacing a portion of skin from a SCID mouse with human neonatal foreskin (FIG. 4). After the skin graft was established, the human foreskin was inoculated with carcinoma cells. After a measurable tumor was established, either an αvβ3 antagonist or PBS was injected into the mouse tail vein. Following a 2-3 week period, the tumor was excised and analyzed by weight and histology.
The in vivo chimeric mouse:human model is prepared essentially as described in Yan, et al., J. Clin. Invest., 91:986-996 (1993). Briefly, a 2 cm^2 square area of skin was surgically removed from a SCID mouse (6-8 weeks of age) and replaced with a human foreskin. The mouse was anesthetized and the hair removed from a 5 cm^2 area on each side of the lateral abdominal region by shaving. Two circular graft beds of 2 cm^2 were prepared by removing the full thickness of skin down to the fascia. Full thickness human skin grafts of the same size derived from human neonatal foreskin were placed onto the wound beds and sutured into place. […]
In a procedure similar to that described above for monoclonal antibodies, peptide antagonists of αvβ3 were injected intravenously into the tail vein of SCID mice having measurable M21-L tumors. […] The mean volume and weight of resected tumors following treatment were determined with the results respectively shown in FIGS. 19A and 19B.

T2 sequence (P06756 31-889 limits assumed): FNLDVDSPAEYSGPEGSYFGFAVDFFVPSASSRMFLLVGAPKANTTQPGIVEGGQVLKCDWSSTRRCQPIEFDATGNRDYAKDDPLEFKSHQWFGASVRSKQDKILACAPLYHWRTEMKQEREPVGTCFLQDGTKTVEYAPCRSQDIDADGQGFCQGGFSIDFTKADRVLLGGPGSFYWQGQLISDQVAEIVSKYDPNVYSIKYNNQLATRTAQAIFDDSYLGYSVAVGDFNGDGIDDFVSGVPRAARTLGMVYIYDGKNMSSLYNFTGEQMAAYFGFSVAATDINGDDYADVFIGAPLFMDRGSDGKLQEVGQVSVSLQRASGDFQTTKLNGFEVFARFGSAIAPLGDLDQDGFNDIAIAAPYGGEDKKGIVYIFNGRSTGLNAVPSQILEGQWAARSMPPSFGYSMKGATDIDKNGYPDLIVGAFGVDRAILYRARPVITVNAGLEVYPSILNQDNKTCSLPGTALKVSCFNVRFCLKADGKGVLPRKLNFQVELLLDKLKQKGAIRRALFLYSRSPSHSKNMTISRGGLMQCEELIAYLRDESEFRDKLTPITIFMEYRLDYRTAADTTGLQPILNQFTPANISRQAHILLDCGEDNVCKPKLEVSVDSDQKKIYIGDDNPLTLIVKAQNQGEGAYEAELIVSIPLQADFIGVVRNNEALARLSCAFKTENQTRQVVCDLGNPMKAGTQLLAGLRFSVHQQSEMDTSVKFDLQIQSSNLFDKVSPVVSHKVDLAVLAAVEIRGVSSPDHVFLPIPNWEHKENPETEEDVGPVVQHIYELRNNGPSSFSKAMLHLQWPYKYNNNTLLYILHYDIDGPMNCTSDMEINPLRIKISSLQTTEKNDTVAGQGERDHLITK
T2 sequence (P06756 891-1048 partner limits assumed): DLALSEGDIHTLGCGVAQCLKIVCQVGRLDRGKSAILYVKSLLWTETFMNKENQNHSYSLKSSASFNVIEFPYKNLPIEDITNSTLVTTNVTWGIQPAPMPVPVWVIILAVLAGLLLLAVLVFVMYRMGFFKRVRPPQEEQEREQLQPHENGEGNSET
T2 sequence (P05106 27-788): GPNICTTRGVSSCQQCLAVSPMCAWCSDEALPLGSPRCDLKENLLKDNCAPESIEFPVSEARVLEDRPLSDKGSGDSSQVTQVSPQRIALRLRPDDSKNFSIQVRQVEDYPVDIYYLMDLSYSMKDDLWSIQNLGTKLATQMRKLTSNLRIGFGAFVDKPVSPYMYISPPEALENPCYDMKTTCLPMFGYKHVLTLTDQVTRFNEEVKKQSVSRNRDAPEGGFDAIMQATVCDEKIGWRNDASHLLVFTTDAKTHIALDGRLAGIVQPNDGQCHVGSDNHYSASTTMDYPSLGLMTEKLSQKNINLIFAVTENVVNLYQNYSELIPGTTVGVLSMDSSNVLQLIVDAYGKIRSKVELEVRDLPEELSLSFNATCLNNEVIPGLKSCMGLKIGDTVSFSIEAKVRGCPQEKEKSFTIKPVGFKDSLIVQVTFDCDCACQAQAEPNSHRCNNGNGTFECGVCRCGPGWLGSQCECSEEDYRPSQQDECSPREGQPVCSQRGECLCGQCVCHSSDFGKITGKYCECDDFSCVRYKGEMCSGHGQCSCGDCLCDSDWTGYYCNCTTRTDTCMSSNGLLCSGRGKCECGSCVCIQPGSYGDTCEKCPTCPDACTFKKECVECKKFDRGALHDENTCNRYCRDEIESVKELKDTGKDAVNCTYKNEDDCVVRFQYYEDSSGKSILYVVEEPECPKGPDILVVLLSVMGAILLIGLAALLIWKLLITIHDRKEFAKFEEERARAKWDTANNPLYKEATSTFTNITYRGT
T1 sequence (P08514 32-887 limits assumed): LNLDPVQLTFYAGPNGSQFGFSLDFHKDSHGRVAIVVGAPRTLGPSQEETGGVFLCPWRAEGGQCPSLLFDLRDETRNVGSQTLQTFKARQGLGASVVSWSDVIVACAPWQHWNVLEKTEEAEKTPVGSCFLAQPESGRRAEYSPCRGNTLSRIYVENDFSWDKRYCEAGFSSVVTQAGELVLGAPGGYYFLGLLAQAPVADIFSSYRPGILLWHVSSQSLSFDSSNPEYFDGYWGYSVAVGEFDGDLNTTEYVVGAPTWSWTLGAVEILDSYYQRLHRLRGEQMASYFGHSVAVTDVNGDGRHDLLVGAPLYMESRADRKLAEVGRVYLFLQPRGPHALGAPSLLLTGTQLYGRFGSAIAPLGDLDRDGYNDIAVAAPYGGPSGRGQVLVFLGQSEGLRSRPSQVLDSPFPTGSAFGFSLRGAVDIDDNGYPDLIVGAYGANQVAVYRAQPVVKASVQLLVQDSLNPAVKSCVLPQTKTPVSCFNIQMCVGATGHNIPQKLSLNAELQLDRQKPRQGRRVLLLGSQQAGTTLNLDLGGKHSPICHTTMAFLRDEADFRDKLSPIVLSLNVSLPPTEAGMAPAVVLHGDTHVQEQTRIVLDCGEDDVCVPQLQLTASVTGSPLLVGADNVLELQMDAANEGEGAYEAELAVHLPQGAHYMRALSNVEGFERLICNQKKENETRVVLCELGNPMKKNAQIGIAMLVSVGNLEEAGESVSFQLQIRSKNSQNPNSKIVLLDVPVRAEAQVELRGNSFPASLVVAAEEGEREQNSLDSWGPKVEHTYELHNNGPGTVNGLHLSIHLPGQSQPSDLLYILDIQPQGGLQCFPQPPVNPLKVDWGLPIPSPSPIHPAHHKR
T1 sequence (P08514 891-1039 partner limits assumed): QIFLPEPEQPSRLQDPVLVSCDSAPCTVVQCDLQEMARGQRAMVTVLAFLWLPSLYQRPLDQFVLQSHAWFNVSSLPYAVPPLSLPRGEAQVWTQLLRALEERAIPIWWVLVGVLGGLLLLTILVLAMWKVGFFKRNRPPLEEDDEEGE
T1 sequence (P05106 27-788): as the sequence (P05106 27-788) above
Sequence of αvβ3 integrin (P06756 31-889 limits assumed): as the sequence (P06756 31-889 limits assumed) above
Sequence of αvβ3 integrin (P06756 891-1048 partner limits assumed): as the sequence (P06756 891-1048 partner limits assumed) above
Sequence of αvβ3 integrin (P05106 27-788): as the sequence (P05106 27-788) above

Molecule: CC(C)[C@@H]1NC(=O)[C@@H](Cc2ccccc2)NC(=O)[C@H](CC(=O)O)NC(=O)CNC(=O)[C@H](CCCNC(=N)N)NC1=O [Peptide 62184, cyclo (RGDfV)]
inhibition of tumor-induced blood vessel formation [1]: demonstrated to inhibit angiogenesis
effect on bFGF-induced blood vessel formation [2]: formation of blood vessels was inhibited

IC50 (αIIbβ3): 100 ± 0.001 µM
IC50 (αvβ3; radiolabeled fibrinogen, average of duplicate data points ± standard deviation, read-out: αvβ3 (IC50 μM)): 57.5 ± 7.84 µM
Molecule: CC(C)[C@@H]1NC(=O)[C@H](Cc2ccccc2)NC(=O)[C@H](CC(=O)O)NC(=O)[C@@H](C)NC(=O)[C@H](CCCNC(=N)N)NC1=O [Peptide 62186, cyclo (RaDFV)] (cyclo(R[dA]DFV))
preference of inhibition of fibrinogen binding, αvβ3 versus αIIbβ3 (αvβ3; comparison of half-maximal concentrations of Table 2): either not as effective in blocking fibrinogen binding to αvβ3 or exhibited preferential inhibition of fibrinogen binding to αIIbβ3
effect on bFGF-induced blood vessel formation [2]: remained undisturbed

Molecule: cyclic RGDfV
inhibition of fibrinogen binding to integrins (αvβ3 integrin): specifically inhibited binding of fibrinogen to the αvβ3 integrin
inhibition of retinal neovascularization [3]: inhibited retinal neovascularization

B1: LM609: monoclonal antibody specific for αvβ3 (anti-αvβ3) (antibody, V domains shown)
VH: EVQLEESGGGLVKPGGSLKLSCAASGFAFSSYDMSWVRQIPEKRLEWVAKVSSGGGSTYYLDTVQGRFTISRDNAKNTLYLQMSSLNSEDTAMYYCARHNYGSFAYWGQGTLVTVSA
VL: ELVMTQTPATLSVTPGDSVSLSCRASQSISNHLHWYQQKSHESPRLLIKYASQSISGIPSRFSGSGSGTDFTLSINSVETEDFGMYFCQQSNSWPHTFGGGTKLEIKRA
tumor volume (M21-L melanoma tumor): approximately 60 mm^3
